Reference: patent publication EP0353821B1, “Antipsychotic 3-piperazinyl-benzazole derivatives” (JANSSEN PHARMACEUTICA N.V., priority 1988, dated 1990)
Where two headings read alike, the source gives them in different places.

What was measured:
[1] = test system: apomorphine-induced phenomena: agitation and stereotypic chewing; experiment: Combined apomorphine-, tryptamine- and norepinephrine test in rats: apomorphine (APO) part; format: in vivo, adult male Wistar rats; settings: Rattus norvegicus, read-out: Combined test in rats, ED₅₀ in mg/kg (APO)
Procedure: (§1) The combined apomorphine (APO)-, tryptamine (TRY)- and norepinephrine (NOR) test in rats.
(§2) The experimental animals used in this test were adult male Wistar rats (weight 240 ± 10g). After an overnight fast the animals were treated subcutaneously or orally with an aqueous solution of the compound under investigation (1ml/100g body weight) (time = zero) and put in isolated observation cages. […] At the end of this 1 hour period (time = 90 minutes) the same animals were injected intravenously with 40 mg/kg of tryptamine (TRY) and the presence of the typical tryptamine-induced bilateral tonic seizures and hyperaemia of the ears was noted. Two hours after pretreatment (time = 120 minutes) finally, the same animals were challenged with 1.25 mg/kg intravenously of norephinephrine (NOR) and possible mortality was looked for up to 60 minutes later.
(§3) The table 3 gives the ED₅₀-values of a number of the compounds under consideration. As used herein, the ED₅₀-value represents the dose which protects 50% of the animals from apomorphine-, tryptamine- or norepinephrine-induced phenomena.

[2] = test system: tryptamine-induced bilateral tonic seizures and hyperaemia of the ears; experiment: Combined apomorphine-, tryptamine- and norepinephrine test in rats: tryptamine (TRY) part; format: in vivo, adult male Wistar rats; settings: Rattus norvegicus, 1.5 h, compound subcutaneously or orally, 40 mg/kg tryptamine i.v. at 90 minutes, dose which protects 50% of the animals, read-out: Combined test in rats
Procedure: as §1, §2, §3

[3] = test system: norepinephrine-induced phenomena (mortality); experiment: Combined apomorphine-, tryptamine- and norepinephrine test in rats: norepinephrine (NOR) part; format: in vivo, adult male Wistar rats; settings: Rattus norvegicus; compound subcutaneously or orally; 1.25 mg/kg norepinephrine i.v. at 120 minutes; mortality up to 60 minutes later; dose which protects 50% of the animals; read-out: Combined test in rats; ED₅₀ in mg/kg (NOR)
Procedure: as §1, §2, §3

[4] = test system: apomorphine (emesis); experiment: The apomorphine test in dogs (APO-dog); format: in vivo, beagle dogs; settings: Canis lupus familiaris, 1 h; compound subcutaneously or orally; 0.31 mg/kg (s.c.) apomorphine one hour thereafter; dose which protects 50% of the animals from emesis; read-out: (APO)-dog test, ED₅₀ in mg/kg
Procedure: The apomorphine test in dogs (APO-dog).
The method used is described by P.A.J. Janssen and C.J.E. Niemegeers in Arzneim.-Forsch. (Drug Res.), 9, 765-767 (1959). The compounds listed in table 3 were administered subcutaneously or orally to beagle dogs at different doses and the animals were challenged one hour thereafter with a standard dose of 0.31 mg/kg (s.c.) of apomorphine.
The table 3 gives the ED₅₀-values of a number of the compounds under consideration. As used herein, the ED₅₀ value represents the dose which protects 50% of the animals from emesis.

[5] = compound subcutaneously or orally, 1.25 mg/kg apomorphine i.v. at 30 minutes, observed 1 hour, dose which protects 50% of the animals
[6] = bilateral tonic seizures, ED₅₀ in mg/kg (TRY)-convulsions
[7] = hyperaemia of the ears, ED₅₀ in mg/kg (TRY)-hyperaemia

## Cc1nc2n(c(=O)c1CCN1CCN(c3noc4cc(F)ccc34)CC1)CCS2 [Compound 3, 6-[2-[4-(6-fluoro-1,2-benzisoxazol-3-yl)-1-piperazinyl]ethyl]-2,3-dihydro-7-methyl-5H-thiazolo[3,2-a]pyrimidin-5-one]
[1]; [5]
  ED50: 0.02 mg/kg
[2]; [6]
  ED50: 0.005 mg/kg
[2]; [7]
  ED50: 0.00125 mg/kg
[3]
  ED50: 0.08 mg/kg
[4]
  ED50: 0.07 mg/kg

## Cc1nc2ccccn2c(=O)c1CCN1CCN(c2nsc3ccccc23)CC1 [Compound 11]
[1]
  ED50: 0.08 mg/kg
[2]; [6]
  ED50: 0.08 mg/kg
[2]; [7]
  ED50: 0.00031 mg/kg
[3]
  ED50: 1.25 mg/kg
[4]
  ED50: 0.45 mg/kg

## Cc1nc2ccccn2c(=O)c1CCN1CCN(c2noc3cc(F)ccc23)CC1 [Compound 15]
[1]; [5]
  ED50: 0.04 mg/kg
[2]; [6]
  ED50: 0.08 mg/kg
[2]; [7]
  ED50: 0.005 mg/kg
[3]
  ED50: 0.31 mg/kg
[4]
  ED50: 0.015 mg/kg

## Cc1nc2ccccn2c(=O)c1CCN1CCN(c2n[nH]c3cc(F)ccc23)CC1 [Compound 16]
[1]; [5]
  ED50: 0.08 mg/kg
[2]; [6]
  ED50: 0.08 mg/kg
[2]; [7]
  ED50: 0.005 mg/kg
[4]
  ED50: < 0.01 mg/kg

## Cc1nc2n(c(=O)c1CCN1CCN(c3noc4cc(F)ccc34)CC1)CCCC2 [Compound 20]
[1]; [5]
  ED50: 0.08 mg/kg
[2]; [6]
  ED50: 0.08 mg/kg
[2]; [7]
  ED50: 0.005 mg/kg
[4]
  ED50: 0.015 mg/kg

## Cc1nc2n(c(=O)c1CCN1CCN(c3noc4cc(F)ccc34)CC1)CCCS2 [Compound 25]
[1]; [5]
  ED50: 0.08 mg/kg
[2]; [6]
  ED50: 0.08 mg/kg
[2]; [7]
  ED50: ≤ 0.01 mg/kg
[3]
  ED50: 0.31 mg/kg
[4]
  ED50: 0.06 mg/kg

## Cc1nc2n(c(=O)c1CCN1CCN(c3nsc4ccccc34)CC1)CCS2 [Compound 26]
[1]; [5]
  ED50: 0.08 mg/kg
[2]; [6]
  ED50: 0.02 mg/kg
[2]; [7]
  ED50: 0.00125 mg/kg
[3]
  ED50: 5 mg/kg
[4]
  ED50: 0.03 mg/kg

## Cc1nc2n(c(=O)c1CCN1CCN(c3noc4ccccc34)CC1)CCS2 [Compound 27]
[1]; [5]
  ED50: 0.03 mg/kg
[2]; [6]
  ED50: 0.03 mg/kg
[2]; [7]
  ED50: 0.00125 mg/kg
[3]
  ED50: 0.31 mg/kg
[4]
  ED50: 0.06 mg/kg

## Cc1nc2sccn2c(=O)c1CCN1CCN(c2noc3ccccc23)CC1 [Compound 31]
[1]
  ED50: 0.03 mg/kg
[2]; [6]
  ED50: 0.02 mg/kg
[2]; [7]
  ED50: 0.00031 mg/kg
[3]
  ED50: 1.25 mg/kg
[4]
  ED50: 0.03 mg/kg

## Cc1nc2sccn2c(=O)c1CCN1CCN(c2noc3cc(F)ccc23)CC1 [Compound 34]
[1]; [5]
  ED50: 0.02 mg/kg
[2]; [6]
  ED50: 0.08 mg/kg
[2]; [7]
  ED50: < 0.01 mg/kg
[3]
  ED50: 0.31 mg/kg
[4]
  ED50: 0.015 mg/kg

## Cc1nc2scc(C)n2c(=O)c1CCN1CCN(c2noc3cc(F)ccc23)CC1 [Compound 39]
[1]; [5]
  ED50: 0.08 mg/kg
[2]; [6]
  ED50: 0.04 mg/kg
[2]; [7]
  ED50: < 0.04 mg/kg
[3]
  ED50: 0.31 mg/kg
[4]
  ED50: 0.03 mg/kg

## Cc1nc2scc(C)n2c(=O)c1CCN1CCN(c2n[nH]c3cc(F)ccc23)CC1 [Compound 40]
[1]; [5]
  ED50: 0.02 mg/kg
[2]; [6]
  ED50: 0.02 mg/kg
[2]; [7]
  ED50: 0.00031 mg/kg
[3]
  ED50: 0.08 mg/kg
[4]
  ED50: 0.0025 mg/kg

## Cc1nc2ccccn2c(=O)c1CCN1CCN(c2n[nH]c3ccccc23)CC1 [Compound 41]
[1]
  ED50: 0.08 mg/kg
[2]; [6]
  ED50: 0.04 mg/kg
[2]; [7]
  ED50: 0.005 mg/kg
[3]
  ED50: 1.25 mg/kg
[4]
  ED50: 0.03 mg/kg

## Cc1nc2c(C)cccn2c(=O)c1CCN1CCN(c2noc3ccccc23)CC1 [Compound 45]
[1]
  ED50: 0.04 mg/kg
[2]; [6]
  ED50: 0.08 mg/kg
[2]; [7]
  ED50: 0.02 mg/kg
[3]
  ED50: 1.25 mg/kg
[4]
  ED50: > 0.01 mg/kg

## Cc1nc2c(C)cccn2c(=O)c1CCN1CCN(c2n[nH]c3cc(F)ccc23)CC1 [Compound 47]
[1]; [5]
  ED50: 0.04 mg/kg
[2]; [6]
  ED50: 0.08 mg/kg
[2]; [7]
  ED50: 0.000125 mg/kg
[3]
  ED50: 0.08 mg/kg
[4]
  ED50: 0.001 mg/kg

## Cc1nc2n(c(=O)c1CCN1CCN(c3nsc4ccccc34)CC1)CCCC2C (stereo not drawn) [Compound 55]
[1]; [5]
  ED50: 0.04 mg/kg
[2]; [6]
  ED50: 0.04 mg/kg
[2]; [7]
  ED50: 0.0025 mg/kg
[3]
  ED50: 10 mg/kg
[4]
  ED50: > 0.016 mg/kg

## Cc1nc2n(c(=O)c1CCN1CCN(c3n[nH]c4cc(F)ccc34)CC1)CCCC2C (stereo not drawn) [Compound 56]
[1]; [5]
  ED50: 0.08 mg/kg
[2]; [6]
  ED50: 0.08 mg/kg
[2]; [7]
  ED50: 0.005 mg/kg
[3]
  ED50: 0.16 mg/kg
[4]
  ED50: 0.00045 mg/kg

## Cc1nc2sccn2c(=O)c1CCN1CCN(c2n[nH]c3cc(F)ccc23)CC1 [Compound 63]
[1]; [5]
  ED50: 0.02 mg/kg
[2]; [6]
  ED50: 0.02 mg/kg
[2]; [7]
  ED50: 0.00125 mg/kg
[3]
  ED50: 0.16 mg/kg
[4]
  ED50: 0.001 mg/kg

## Cc1nc2sccn2c(=O)c1CCN1CCN(c2n[nH]c3ccccc23)CC1 [Compound 64]
[1]
  ED50: 0.08 mg/kg
[2]; [6]
  ED50: 0.08 mg/kg
[2]; [7]
  ED50: 0.005 mg/kg
[3]
  ED50: 1.25 mg/kg

## Cc1nc2scc(C)n2c(=O)c1CCN1CCN(c2n[nH]c3ccccc23)CC1 [Compound 65]
[1]
  ED50: 0.08 mg/kg
[2]; [6]
  ED50: 0.04 mg/kg
[2]; [7]
  ED50: 0.00063 mg/kg
[3]
  ED50: 1.25 mg/kg
